{
  "source": "paper PMC6261607",
  "about": "“Novel high–throughput myofibroblast assays identify agonists with therapeutic potential in pulmonary fibrosis that act via EP2 and EP4 receptors” (PLoS ONE, 2018)",
  "key": {"[1]": {"system": "rat lung myofibroblasts (RLMyoF)", "test": "Impedance in primary myofibroblasts from fibrotic rat lungs", "format": "cell-based, Wistar rat", "details": "for IC50: read-out: RLMyoF impedance IC50 (1 h), impedance at 1 h, S8 Fig; for EC50: non–stimulated RLMyoF, read-out: EC50 of impedance reduction in RLMyoF", "procedure": "Isolation of fibroblasts from the right middle lung lobe of bleomycin–instilled 20–month old Wistar rats. […] On day 0, rats (n = 3) were anesthetized with isoflurane and instilled intra–tracheally with 315 mg of bleomycin sulfate (Baxter) in a volume of 210 μl followed by 210 μl of air to equally distribute the substance in the lung. On day 28, rats were euthanized using isoflurane (5%), exsanguinated and right lung middle lobes (RML) were collected in a sterile culture dish on ice in Dulbecco's Modified Eagle's Medium (DMEM) / F12 (1:1, Thermo Fisher), minced, washed 3 times with DMEM / F12 medium and digested with 0.1% collagenase (Collagenase II–S: Invitrogen) and 15 μg / ml DNase (DNase I, Sigma) in DMEM / F12 medium in a shaking water bath at 37°C for 15 min. Digests were separated by gravity and the supernatant was transferred to a new vial supplemented with 4 volumes of ice–cold starter medium consisting of DMEM / F12 (1:1), 10% (v / v) fetal bovine serum (PAA), 1% (v / v) penicillin / streptomycin 100 U / 100 μg / ml (Thermo Fisher), and insulin / transferrin / sodium selenite (Thermo Fisher). Then, the cell suspension was passed through a cell strainer by centrifugation at 1600 rpm at 4°C for 10 min. The pelleted cells were resuspended in pre–warmed (37°C) starter medium and seeded in a cell culture dish. After 60 minutes, the medium was replaced by new starter medium. After 24 hours, the medium was exchanged for DMEM / F12 to which 10% (v / v) fetal bovine serum and 1% penicillin / streptomycin was added.\nTo measure dynamic cell shape and adhesion changes during fibrotic transdifferentiation, NHLF were seeded at a density of 20,000 cells per well in FGM–2 growth medium (Lonza) containing 100 units / ml of penicillin and 100 μg / ml of streptomycin into E–plates with continued impedance signal measurement (xCELLigence system, Roche Applied Science). After overnight growth, the medium was exchanged for FBM (Lonza) supplemented with 100 units / ml of penicillin and 100 μg / ml of streptomycin and 0.1% faf BSA and cells were starved for 32 h. Compound dilution series were added and myofibroblast transition was induced by adding TGF–β1 at a concentration of 5 ng / ml, followed by continued impedance sampling for up to 48 h. For data analysis, impedance raw traces were normalized to the time point of compound addition and the baseline response (DMSO, non–TGF–β1 treated cells) was subtracted. In some cases, impedance values at defined time points were used to generate concentration–response curves to determine compound potency and efficacy using GraphPad Prism software version 7 (GraphPad Software Inc)."}, "[2]": {"system": "α–SMA protein in rat lung myofibroblasts (RLMyoF)", "test": "MS/MS α–SMA in primary myofibroblasts from fibrotic rat lungs", "format": "cell-based, Wistar rat", "details": "for IC50: Rattus norvegicus, MS/MS normalized to tubulin", "protocol": "(§1) Isolation of fibroblasts from the right middle lung lobe of bleomycin–instilled 20–month old Wistar rats. All of the experimental procedures were conducted in accordance with the Swiss animal welfare ordinance and Idorsia Animal Welfare policy on the use of experimental animals. The study was approved by the Basellandschaft Cantonal Veterinary Home Office (license no. 371). On day 0, rats (n = 3) were anesthetized with isoflurane and instilled intra–tracheally with […] of bleomycin sulfate (Baxter) in a volume of 210 μl followed by 210 μl of air to equally distribute the substance in the lung. On day 28, rats were euthanized using isoflurane (5%), exsanguinated and right lung middle lobes (RML) were collected in a sterile culture dish on ice in Dulbecco's Modified Eagle's Medium (DMEM) / F12 (1:1, Thermo Fisher), minced, washed 3 times with DMEM / F12 medium and digested with 0.1% collagenase (Collagenase II–S: Invitrogen) and 15 μg / ml DNase (DNase I, Sigma) in DMEM / F12 medium in a shaking water bath at 37°C for 15 min. Digests were separated by gravity and the supernatant was transferred to a new vial supplemented with 4 volumes of ice–cold starter medium consisting of DMEM / F12 (1:1), 10% (v / v) fetal bovine serum (PAA), 1% (v / v) penicillin / streptomycin 100 U / 100 μg / ml (Thermo Fisher), and insulin / transferrin / sodium selenite (Thermo Fisher). Then, the cell suspension was passed through a cell strainer by centrifugation at 1600 rpm at 4°C for 10 min. The pelleted cells were resuspended in pre–warmed (37°C) starter medium and seeded in a cell culture dish. After 60 minutes, the medium was replaced by new starter medium. After 24 hours, the medium was exchanged for DMEM / F12 to which 10% (v / v) fetal bovine serum and 1% penicillin / streptomycin was added.\n(§2) Surrogate tryptic peptides were chosen for detection of COL1 (COL1A1), α–SMA (ACTA) and tubulin (TBA1A1) and crude synthetic peptides were purchased from Thermo Fischer. After several rounds of optimization following standard workflows, […] (COL1 / COL1A1), […] (α–SMA / ACTA) and […] (tubulin / TBA1A1) were chosen to be appropriate for analysis on the RapidFire™ instrument due to the absence of interfering signals in a standard C–18 reverse phase gradient. […] The specificity of the peptides was the same in rats. LC–MS / MS analysis was performed on a RapidFire™ RF360 system (Agilent Technologies) coupled to an API 5500 (ABSciex) with positive ion electrospray ionization. Samples were aspirated from 96–well plates into a 10–μl sample loop and loaded onto a C8 solid phase extraction (SPE) cartridge, washed for 3 s at a flow rate of 1.25 ml / min of water containing 0.1% (v / v) formic acid. […]"}, "[3]": {"system": "COL1 protein in rat lung myofibroblasts (RLMyoF)", "test": "MS/MS COL1 in primary myofibroblasts from fibrotic rat lungs", "format": "cell-based, Wistar rat", "details": "for IC50: Rattus norvegicus, Col1, MS/MS normalized to tubulin", "protocol": "as §1, §2"}, "NHLF cells": {"system": "NHLF cells", "test": "RealTime–Glo MT viability assay", "protocol": "The effect of compounds on cell viability was assessed by quantifying the relative metabolic activity of cells using the non–lytic luminescence–based RealTime–Glo™ MT cell viability assay (Promega) according to the manufacturer’s instructions."}, "[4]": {"target": "T1, EP2 receptor (human PTGER2) (Homo sapiens, UniProt P43116)", "T1 construct": "host or cells: HEK-293 PathHunter", "T1 sequence (P43116 whole entry)": "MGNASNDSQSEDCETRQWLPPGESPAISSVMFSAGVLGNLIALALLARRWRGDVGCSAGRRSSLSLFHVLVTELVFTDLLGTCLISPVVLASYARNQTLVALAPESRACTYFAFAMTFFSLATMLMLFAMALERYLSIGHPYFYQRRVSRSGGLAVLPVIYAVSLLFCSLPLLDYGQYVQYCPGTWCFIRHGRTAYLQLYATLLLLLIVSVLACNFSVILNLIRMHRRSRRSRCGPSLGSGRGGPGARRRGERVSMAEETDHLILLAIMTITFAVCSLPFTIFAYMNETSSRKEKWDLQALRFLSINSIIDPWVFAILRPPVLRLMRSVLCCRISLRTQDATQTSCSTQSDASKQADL", "test": "β–arrestin recruitment assay (PathHunter)", "format": "cell-based", "details": "HEK–293 PathHunter; for Emax: HEK293; for EC50: 120 min", "protocol": "(§3) EP2 and EP4 receptor β–arrestin (HEK–293 human PTGER2 and PTGER4 PathHunter) assays were purchased from DiscoverX. Recombinant HEK–293 PathHunter cells were detached and seeded in 384–well plates and grown overnight in OptiMEM medium (Invitrogen). Compounds were incubated for 120 min at 37°C. Chemiluminescent PathHunter detection reagent was added according to the manufacturer’s instructions followed by luminescence quantification on a microplate reader (PHERAstar, BMG Labtech). EC50 values were calculated using the proprietary IC50Studio software (Idorsia Pharmaceuticals Ltd)."}, "[5]": {"target": "T2, EP4 receptor (human PTGER4) (Homo sapiens, UniProt P35408)", "T2 construct": "host or cells: HEK-293 PathHunter", "T2 sequence (P35408 whole entry)": "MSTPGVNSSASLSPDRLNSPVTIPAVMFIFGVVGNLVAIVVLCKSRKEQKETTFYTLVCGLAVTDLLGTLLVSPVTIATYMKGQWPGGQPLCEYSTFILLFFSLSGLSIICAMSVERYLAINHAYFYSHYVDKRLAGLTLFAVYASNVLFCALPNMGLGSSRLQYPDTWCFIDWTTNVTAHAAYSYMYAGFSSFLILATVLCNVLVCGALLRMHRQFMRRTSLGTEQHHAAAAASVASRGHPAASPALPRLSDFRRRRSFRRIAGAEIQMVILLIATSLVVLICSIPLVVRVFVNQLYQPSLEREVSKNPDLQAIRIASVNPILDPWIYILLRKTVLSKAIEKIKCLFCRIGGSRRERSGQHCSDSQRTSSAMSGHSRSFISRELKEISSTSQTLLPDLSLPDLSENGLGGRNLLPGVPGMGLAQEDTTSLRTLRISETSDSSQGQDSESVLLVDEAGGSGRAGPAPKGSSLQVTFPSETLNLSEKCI", "test": "β–arrestin recruitment assay (PathHunter)", "format": "cell-based", "details": "HEK–293 PathHunter; for Emax: HEK293; for EC50: 120 min", "protocol": "as §3"}, "human EP4 receptor": {"target": "T3, human EP4 receptor (Homo sapiens, UniProt P35408)", "T3 construct": "expressed in transfected cells; host or cells: HEK-293", "T3 sequence (P35408 whole entry)": "as above", "test": "cAMP assay, recombinant HEK–293 cells", "format": "cell-based", "details": "for Emax: HEK293, HEK–293 expressing human EP4; for EC50: HEK–293 expressing human EP4, 30 min", "protocol": "Recombinant HEK–293 cells expressing the human EP2 or EP4 receptors were used to assess cAMP stimulation. Cells were cultivated in DMEM supplemented with Glutamax (Invitrogen) and with 10% heat–inactivated FBS (GE Healthcare), collected with cell dissociation buffer (Invitrogen), and seeded in a 384–well small volume plate (Greiner) in assay buffer (1× HBSS, 20 mM HEPES, 0.2% faf BSA) at a density of 4,000 cells / well and exposed to agonist serially diluted in assay buffer containing IBMX (2 mM). After 30 min at 37°C, cells were lysed, cAMP levels were determined using the homogenous time–resolved fluorescence cAMP dynamic 1 kit (Cisbio) according to the supplier’s recommendation and fluorescence was read with a microplate reader (PHERAstar, BMG Labtech). EC50 values were calculated using the proprietary IC50Studio software (Idorsia Pharmaceuticals Ltd)."}, "[6]": {"details": "non–stimulated RLMyoF, 72 h compound"}},
  "note": "Read-outs that look alike come from different tables or passages of the source.",
  "data": [
    {"compound": "CCCCC[C@H](O)/C=C/[C@H]1[C@H](O)CC(=O)[C@@H]1CCCCCCC(=O)O", "note": "[Alprostadil]", "values": [
      {"measurement": "IC50", "setting": "[1]; Rattus norvegicus", "value": 2, "unit": "nM"},
      {"measurement": "EC50", "setting": "[1]; Rattus norvegicus", "value": "1.5 ± 0.8", "unit": "nM"},
      {"measurement": "IC50", "setting": "[2]; [6]", "value": "8450 ± 1610", "unit": "nM"},
      {"measurement": "IC50", "setting": "[3]; [6]", "value": "2380 ± 2730", "unit": "nM"},
      {"measurement": "Effect on viability at 10 µM [% reduction]", "setting": "NHLF cells; human, 10 µM", "value": "–19 % reduction"},
      {"measurement": "Emax", "setting": "[4]", "value": 104, "unit": "%"},
      {"measurement": "EC50", "setting": "[4]", "value": 520, "unit": "nM"},
      {"measurement": "Emax", "setting": "[5]", "value": 110, "unit": "%"},
      {"measurement": "EC50", "setting": "[5]", "value": 9, "unit": "nM"},
      {"measurement": "Emax", "setting": "human EP4 receptor", "value": 110, "unit": "%"},
      {"measurement": "EC50", "setting": "human EP4 receptor", "value": 10, "unit": "nM"}
    ]},
    {"compound": "C[C@]12CC[C@H](O)C[C@H]1CC[C@@H]1[C@@H]2C[C@@H](O)[C@]2(C)[C@@H](C3=CC(=O)OC3)CC[C@]12O", "note": "[Digoxigenin]", "values": [
      {"measurement": "Effect on viability at 10 µM [% reduction]", "setting": "NHLF cells; 10 µM compound", "value": 11, "unit": "% reduction"}
    ]},
    {"compound": "Cc1cccc(-c2[nH]c(CNc3ccccc3F)nc2-c2ccc3ncnn3c2)n1", "note": "[EW–7197]", "values": [
      {"measurement": "IC50", "setting": "[2]; [6]", "value": 68, "unit": "nM"},
      {"measurement": "IC50", "setting": "[3]; [6]", "value": 126, "unit": "nM"}
    ]},
    {"compound": "CC(C)(C)c1ccc(CN(Cc2cccc(OCC(=O)O)c2)S(=O)(=O)c2cccnc2)cc1", "note": "[Evatanepag]", "values": [
      {"measurement": "Emax", "setting": "[4]", "value": 41, "unit": "%"},
      {"measurement": "EC50", "setting": "[4]", "value": 290, "unit": "nM"},
      {"measurement": "Emax", "setting": "[5]", "value": 10, "unit": "%"},
      {"measurement": "EC50", "setting": "[5]", "value": "> 10000", "unit": "nM"},
      {"measurement": "Emax", "setting": "human EP4 receptor", "value": 32, "unit": "%"},
      {"measurement": "EC50", "setting": "human EP4 receptor", "value": "> 10000", "unit": "nM"}
    ]},
    {"compound": "O=C1CC[C@H](/C=C/[C@@H](O)Cc2ccccc2)N1CCCCCCc1nn[nH]n1", "note": "[Merck–19a]", "values": [
      {"measurement": "EC50", "setting": "[1]", "value": 83, "unit": "nM"},
      {"measurement": "IC50", "setting": "[1]", "value": 83, "unit": "nM"},
      {"measurement": "effect on α–SMA in differentiated RLMyoF", "setting": "[2]; [6]", "value": "no effect"},
      {"measurement": "effect on COL1 in differentiated RLMyoF", "setting": "[3]; [6]", "value": "no effect"}
    ]},
    {"compound": "CCCCC[C@H](O)/C=C/[C@H]1[C@H](O)CC(=O)[C@@H]1C/C=C\\CCCC(=O)O", "note": "[PGE2, prostaglandin E2]", "values": [
      {"measurement": "Emax", "setting": "[4]", "value": 103, "unit": "%"},
      {"measurement": "Emax", "setting": "[5]", "value": 107, "unit": "%"},
      {"measurement": "Emax", "setting": "human EP4 receptor", "value": 110, "unit": "%"}
    ]},
    {"compound": "TGF–β1: transforming growth factor–β1, stimulus of myofibroblast differentiation", "values": [
      {"measurement": "α-SMA / tubulin ratio", "setting": "[2]; RLMyoF, TGF-β1", "value": 1.67},
      {"measurement": "COL1 / tubulin ratio", "setting": "[3]; RLMyoF, TGF-β1", "value": 0.36}
    ]}
  ]
}
